Reference: patent publication US7524853B2 (Solvay Pharmaceuticals B.V., priority 2003, dated 2009)

Assays:
Format in all cases: cell-based
[1] = molecular target: T1, 17β-hydroxysteroid dehydrogenase type 3 (17β-HSD type 3) (Homo sapiens, UniProt P37058); assay: Inhibition of 17β-HSD type 3 in MCF-7 cells stably expressing the isoenzyme (tritium labeled androstenedione conversion, HPLC); settings: MCF7, MCF-7 cells expressing 17β-HSD type 3, 2 nM tritium labeled androstenedione; for inhibition at 1 µM: 1 μM test compound, read-out: % Inhibition HSD3 1 μM; for inhibition at 10 µM: 10 μM test compound, read-out: % Inhibition HSD3 10 μM
T1 construct: expressed in transfected cells; host or cells: MCF-7
T1 sequence (P37058 1-310): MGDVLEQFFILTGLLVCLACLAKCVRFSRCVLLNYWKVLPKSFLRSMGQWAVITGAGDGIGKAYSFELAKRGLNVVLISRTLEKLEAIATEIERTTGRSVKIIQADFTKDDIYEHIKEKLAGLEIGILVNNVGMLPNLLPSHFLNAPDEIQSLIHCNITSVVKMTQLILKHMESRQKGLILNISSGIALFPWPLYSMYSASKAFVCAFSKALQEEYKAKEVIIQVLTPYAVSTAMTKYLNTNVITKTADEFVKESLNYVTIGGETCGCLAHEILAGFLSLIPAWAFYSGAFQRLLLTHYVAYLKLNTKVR
Text: (§1) Biological Testing Materials and Methods 1. Inhibition of the 17β-hydroxysteroid dehydrocienase type 1, type 2 and type 3 enzyme
(§2) The compounds were screened in respect of 17β-HSD enzyme activity in vitro on established MCF-7 cell lines, each stably expressing one of the respective 17β-HSD isoenzymes. The interconversion of substrate by each isoenzyme and the 17β-HSD inhibiting activity of chemical compounds in these cell lines were detected by HPLC system.
(§3) Varying amounts of the test compounds were incubated in the growth medium of the 17β-HSD expressing cells together tritium labeled substrate (2 nM estrone for 17β-HSD type 1; 2 nM estradiol for 17β-HSD type 2; and 2 nM androstenedione for 17β-HSD type 3). The medium samples were removed after exact incubation time and the reaction is stopped by trichloroacetic acid (TCA). The samples were analyzed by HPLC-coupled flow scintillation analysis.
(§4) For each enzyme type, the HSD-inhibiting activity of an individual test compound was calculated by comparing the conversion of a control sample without any test compound (referred to as “Negative Control”) to the (reduced) conversion of the test sample containing the particular compound to be tested (referred to as “Test Sample”).
(§5) Two concentrations of each compound were used. The number of the compound refers to the numbers indicated in the Experimental Section.

[2] = molecular target: T2, 17β-hydroxysteroid dehydrogenase type 1 (17β-HSD type 1) (Homo sapiens, UniProt P14061); assay: Inhibition of 17β-HSD type 1 in MCF-7 cells stably expressing the isoenzyme (tritium labeled estrone conversion, HPLC); settings: MCF7, MCF-7 cells expressing 17β-HSD type 1, 2 nM tritium labeled estrone; for inhibition at 1 µM: 1 μM test compound, read-out: % Inhibition HSD1 1 μM; for inhibition at 10 µM: 10 μM test compound, read-out: % Inhibition HSD1 10 μM
T2 construct: expressed in transfected cells; host or cells: MCF-7
T2 sequence (P14061 1-328): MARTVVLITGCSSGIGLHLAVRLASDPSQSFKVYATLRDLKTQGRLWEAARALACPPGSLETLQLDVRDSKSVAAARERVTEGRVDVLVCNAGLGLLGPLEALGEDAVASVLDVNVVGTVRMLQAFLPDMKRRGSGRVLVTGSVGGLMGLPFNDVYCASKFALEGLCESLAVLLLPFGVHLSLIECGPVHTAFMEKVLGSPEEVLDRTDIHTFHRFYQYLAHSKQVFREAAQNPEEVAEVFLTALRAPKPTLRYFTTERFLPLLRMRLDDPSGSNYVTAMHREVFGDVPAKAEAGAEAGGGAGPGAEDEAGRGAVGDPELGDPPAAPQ
Text: as §1, §2, §3, §4, §5

[3] = molecular target: T3, 17β-hydroxysteroid dehydrogenase type 2 (17β-HSD type 2) (Homo sapiens, UniProt P37059); assay: Inhibition of 17β-HSD type 2 in MCF-7 cells stably expressing the isoenzyme (tritium labeled estradiol conversion, HPLC); settings: MCF7, MCF-7 cells expressing 17β-HSD type 2, 2 nM tritium labeled estradiol; for inhibition at 1 µM: 1 μM test compound, read-out: % Inhibition HSD2 1 μM; for inhibition at 10 µM: 10 μM test compound, read-out: % Inhibition HSD2 10 μM
T3 construct: expressed in transfected cells; host or cells: MCF-7
T3 sequence (P37059 1-387): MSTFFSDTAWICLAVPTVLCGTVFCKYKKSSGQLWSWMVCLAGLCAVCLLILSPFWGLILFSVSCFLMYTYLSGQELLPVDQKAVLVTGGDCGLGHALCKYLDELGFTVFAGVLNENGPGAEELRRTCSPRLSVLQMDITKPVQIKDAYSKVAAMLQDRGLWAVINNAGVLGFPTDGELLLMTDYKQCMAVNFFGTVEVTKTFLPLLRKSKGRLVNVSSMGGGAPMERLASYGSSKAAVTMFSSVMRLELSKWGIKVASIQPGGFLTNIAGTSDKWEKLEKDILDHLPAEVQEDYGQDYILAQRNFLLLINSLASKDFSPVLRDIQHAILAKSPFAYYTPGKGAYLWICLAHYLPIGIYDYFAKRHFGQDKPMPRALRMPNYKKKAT
Text: as §1, §2, §3, §4, §5

| Structure (SMILES) | inhibition at 1 µM [1] [%] | inhibition at 10 µM [1] [%] | inhibition at 1 µM [2] [%] | inhibition at 10 µM [2] [%] | inhibition at 1 µM [3] [%] | inhibition at 10 µM [3] [%] |
| --- | --- | --- | --- | --- | --- | --- |
| O=Cc1nc2c(c(=O)n1Cc1ccccc1)C1=C(CCCC1)S2(=O)=O [No. 33, 3-Benzyl-4,9,9-trioxo4,5,6,7,8,9-hexahydro-3H-9lambda*6*-benzo[4,5]thieno[2,3-d]pyrimidine-2-carbaldehyde] | 1.9 | 0.1 | 17.6 | 67.3 | 16.3 | 18.7 |
| COCc1nc2sc3c(Cl)c(C=O)c(C(=O)O)c(O)c3c2c(=O)n1Cc1ccccc1 [No. 35, 3-Benzyl-8-chloro-7-formyl-5-hydroxyl-2-methoxymethyl-4-oxo-benzo[4,5]thieno[2,3-d]pyrimidine-6-carboxylic acid] | 14.7 | 82.3 | 8.8 | 28.6 | -6.8 | 28.7 |
| COCc1nc2sc3c(c2c(=O)n1-c1ccccc1)CCCC3 [No. 36, 2-Methoxymethyl-3-phenyl-5,6,7,8-tetrahydro-3H-benzo[4,5]thieno[2,3-d]pyrimidin-4-one] | -0.9 | 7.6 | 20.7 | 22.4 | -6.8 | 28.7 |
| O=c1c2c3c(sc2nc(CO)n1-c1ccccc1)CCCC3 [No. 38, 2-Hydroxymethyl-3-phenyl-5,6,7,8-tetrahydro-3H-benzo[4,5]thieno[2,3-d]pyrimidin-4-one] | 14.2 | 17.6 | 0.3 | 23.6 | 11.4 | 33.4 |
| CC(=O)OCc1nc2sc3c(c2c(=O)n1-c1ccccc1)CCCC3 [No. 39, Acetic acid 4-oxo-3-phenyl-3,4,5,6,7,8-hexahydro-benzo[4,5]thieno[2,3-d]pyrimidin-2-ylmethyl ester] | 18.5 | 12.8 | 21.1 | 13.2 | 25 | 9.5 |

Second part, the compound after the results:

| inhibition at 1 µM [1] [%] | inhibition at 10 µM [1] [%] | inhibition at 1 µM [2] [%] | inhibition at 10 µM [2] [%] | inhibition at 1 µM [3] [%] | inhibition at 10 µM [3] [%] | Structure (SMILES) |
| --- | --- | --- | --- | --- | --- | --- |
| -1.2 | 16.3 | 25.4 | 39.7 | 20.2 | 19.1 | CC(=O)OCc1nc2sc3c(c2c(=O)n1Cc1ccccc1)CCCC3=O [No. 30, Acetic acid 3-benzyl-4,8-dioxo-3,4,5,6,7,8-hexahydro-benzo[4,5]thieno[2,3-d]pyrimidin-2-ylmethyl ester] |
| -1.3 | 10.8 | 12 | 39.7 | -0.5 | 5.1 | COCc1nc2sc3c(c2c(=O)n1Cc1ccccc1)CCCC3=O [No. 31, 3-Benzyl-2-methoxymethyl-6,7-dihydro-3H,5H-benzo[4,5]thieno[2,3-d]pyrimidine-4,8-dione] |
| 9.6 | 70 | 37.2 | 86.6 | 9.8 | 19.5 | COC(=O)c1nc2sc3c(c2c(=O)n1Cc1ccccc1)CCCC3=O [No. 32, 3-Benzyl-4,8-dioxo-3,4,5,6,7,8-hexahydro-benzo[4,5]thieno[2,3-d]pyrimidine-2-carboxylic acid methyl ester] |
| 15.8 | 100 | 12.5 | 64.2 | -1.5 | 25.3 | COCc1nc2sc3c(c2c(=O)n1Cc1ccccc1)CCC(C=O)=C3Cl [No. 34, 3-Benzyl-8-chloro-2-methoxymethyl-4-oxo-3,4,5,6-tetrahydro-benzo[4,5]thieno[2,3-d]pyrimidine-7-carbaldehyde] |
| 9.2 | 22.2 | 9.7 | 21.4 | -0.2 | 9 | COCc1nc2sc3c(c2c(=O)n1-c1ccccc1)CCCC3=O [No. 37, 2-Methoxymethyl-3-phenyl-6,7-dihydro-3H,5H-benzo[4,5]thieno[2,3-d]pyrimidin-4,8-dione] |
